“And” between values parts separate entries of the source, which are not always exact repeats. Equal entries are not always repeated.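 All cell lines were grown in 96-well plates and treated with compound for 48 hours. The concentration for 50% growth inhibition is given as GI50. The concentration for full growth arrest is given as TGI.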
Columns and labels:
Test in all cases: inhibition of tumour cell growth, NCI panel, 48 h
[1] = tested on: A549 NSCLC
[2] = tested on: ACHN renal
[3] = tested on: NCI-H23 lung
[4] = tested on: OVCAR-4 ovarian
[5] = tested on: SF-295 CNS
[6] = tested on: SNB-19 CNS
[7] = tested on: SNB-75 CNS
[8] = tested on: BT-549 breast
[9] = tested on: MDA-MB-231 breast
[10] = tested on: T-47D breast

Structure (SMILES)	TGI [1]	TGI [2]	TGI [3] [µM]	TGI [4]	TGI [5]	TGI [6] [µM]	TGI [7]	GI50 [1] [µM]	GI50 [2] [µM]	GI50 [8] [µM]	TGI [8]	GI50 [9] [µM]	TGI [9]	GI50 [3] [µM]	GI50 [4] [µM]	GI50 [5] [µM]	GI50 [6] [µM]	GI50 [7] [µM]	GI50 [10] [µM]	TGI [10]
CC1=C(C(=O)Nc2ccccc2C)C(c2ccc([N+](=O)[O-])cc2)C(C(=O)Nc2ccccc2C)=C(C)N1	> 100 µM	> 100 µM	> 100	> 100 µM	> 100 µM	> 100	86.5 µM	–	–	–	–	–	–	–	–	–	–	–	–	–
CC(C)(C)OC(=O)NCCCCCCCCn1c2c(c3ccccc3c1=O)C(=O)c1ccccc1-2	> 50 µM	> 30 µM	> 50	> 50 µM	> 41.6 µM	> 50	29.2 µM	> 50	10.9	15.6	> 50 µM	13.5	> 47.5 µM	20.4	> 50	11.1	14.9	10.6	> 48	> 50 µM
Nc1ccc(C#Cc2cncnc2Nc2ccc(OCc3cccc(F)c3)c(Cl)c2)cc1	> 25 µM	> 25 µM	> 25	> 25 µM	> 25 µM	> 25	24.5 µM	8.58	6.87	> 21	> 25 µM	8.08	> 25 µM	> 20.5	12.3	10.6	> 14.3	> 12.1	6.17	> 25 µM
CCc1cccc(CC)c1NC(=S)NC(=O)c1ccc(Br)cc1	> 100 µM	> 100 µM	> 100	> 50.4 µM	> 100 µM	> 100	> 96.6 µM	–	–	–	–	–	> 100 µM	–	–	–	–	–	–	> 100 µM
C#CCN1CCN(C(=S)N/N=C(\C)c2ccccn2)CC1	8.09 µM and 2.16 µM	4.41 µM and 6.2 µM	3.99	4.74 µM and 3.84 µM	7.91 µM and 4.8 µM	17.2	6.35 µM and 12.7 µM	0.273	0.0578	–	3.29 µM and 3.25 µM	–	3.54 µM and 5.04 µM	0.00567	2.73	2.11	4.53	–	–	3.6 µM and 4.06 µM
COC(=O)c1c2c(c(C)[n+]([O-])c1C)C(=O)C=C(NCc1cccc(OC)c1)C2=O	–	2.19 µM	2.57	0.993 µM	2.1 µM	–	3.01 µM	–	1.01	1.29	2.65 µM	0.358	4.83 µM	0.515	0.246	0.772	–	1.64	0.286	1.62 µM
C=C(CN1CCN(c2cccc(C(F)(F)F)c2)CC1)c1ccc(C(=O)Nc2ccccc2N)cc1	> 27.3 µM	11.1 µM	> 32.9	41 µM	3.88 µM	> 30.2	–	1.48	0.92	0.332	5.06 µM	0.941	3.39 µM	3.72	3.94	0.537	4.11	–	13.2	> 50 µM
O=C(O)c1cc2ccccc2c(N=Nc2c([N+](=O)[O-])cc([N+](=O)[O-])cc2S(=O)(=O)O)c1O	> 100 µM	> 100 µM	> 100	> 100 µM	> 100 µM	> 100	> 100 µM	–	–	–	> 100 µM	–	> 100 µM	–	–	–	–	–	–	–
FC(F)(F)c1ccc(C=NC23CC4CC(CC(C4)C2)C3)cc1	> 100 µM	> 100 µM	> 100	> 100 µM	> 100 µM	> 100	> 100 µM	–	–	–	–	–	–	–	–	–	–	–	–	–
CCCCCCCCCCCCCC/C(C(=O)OC)=C(/O)C(=O)OCC	64.9 µM	> 100 µM	> 100	> 100 µM	40.9 µM	> 100	> 100 µM	–	–	–	–	–	–	–	–	–	–	–	–	–
Cc1cc(O)c2c(c1)C(=O)c1cc(O)cc(O)c1C2=O	> 100 µM	73.3 µM	> 63.6	98.8 µM	> 83.1 µM	> 100	> 81.6 µM	–	–	25.4	86 µM	16.1	57.5 µM	–	–	–	–	–	21.2	> 100 µM
N#C/C(=C\c1ccc(Br)cc1)n1nnc2cccc(F)c21	13.2 µM	3.48 µM	3.07	3.49 µM	3.88 µM	3.35	2.87 µM	2.8	1.41	1.45	3.1 µM	1.63	3.46 µM	1.43	1.65	1.92	1.63	1.41	1.08	4.44 µM
CC(=O)O[C@H]1[C@@H]2[C@@H]3[C@@H](C[C@H]1C)[C@@H](C)CO[C@@]1(C)CC/C=C(/C)C[C@@H]2O[C@@H]31	> 100 µM	> 100 µM	> 100	> 100 µM	> 100 µM	> 100	> 100 µM	–	–	–	–	–	–	–	–	–	–	–	–	–
NC(=O)c1csc(C2C=CC(CO)O2)n1 (stereo not drawn)	> 100 µM	> 100 µM	> 100	> 100 µM	> 10 µM	> 100	–	–	–	–	–	–	–	–	–	–	–	–	–	–
CC(=O)NNc1nc(C)c(C(/C=C/c2ccc(Cl)cc2)=N\NS(=O)(=O)c2ccc(C)cc2)s1	> 100 µM	> 100 µM	> 100	> 100 µM	> 100 µM	> 100	> 100 µM	–	–	–	–	–	–	–	–	–	–	–	–	–
Cc1ccc(NS(=O)(=O)c2cc(C(C)(C)C)ccc2OCCOCCOCCOc2ccc(C(C)(C)C)cc2S(=O)(=O)Nc2ccc(C)cc2)cc1	> 100 µM	> 100 µM	> 100	> 100 µM	> 100 µM	> 100	> 100 µM	–	–	–	–	–	–	–	–	–	–	–	–	–
CCC(C(=O)[O-])C(=O)[O-].CCC(C(=O)[O-])C(=O)[O-].N.N.NCCCCCN.[Pt+4].[Pt+4]	> 100 µM	> 100 µM	> 100	> 100 µM	> 100 µM	> 100	> 100 µM	> 100	72.6	–	–	–	–	> 100	> 100	> 100	> 100	> 100	–	–
